Square brackets hold non-standard residues; d marks the D form. Ends that are not written are not given here. Peptide text beside a SMILES is read from it. Bounds are passed on as bounds.

The target of data set [1] is PDZ1-2 of PSD95 (Homo sapiens, UniProt P78352). Put plainly: Fluorescence polarization competition binding assay of PDZ1-2 with probe 5-FAM-NA-1. A general note: Polarisation of emitted light reports the rotation of a fluorescent probe.
Data set [2] can be described thus: Tissue distribution experiment of TAMRA-labeled compounds. In kind it is in vivo. As to conditions: TAMRA-labeled compound, male Balb/c mice, 3 nmol/g tail vein injection, 45 min circulation, after perfusion. How it is done: The TAMRA-labeled example compounds were dissolved in saline to prepare a solution with a concentration of 600 μM/mL. A 100 μL of the above prepared solution was administered, at a dose of 3 nmol/g, to 6-week-old male Balb/c mice (18-22 g) via tail vein injection. After 45 min of circulation, the animals were deeply anesthetized by intraperitoneal injection of sodium pentobarbital. The thoracic cavity was opened, and the mice were subjected to cardiac perfusion using 0.01 M PBS (pH 7.4), and the brains, kidneys, and livers were collected at the end of perfusion. The harvested tissues were immediately placed on ice and stored at −80° C. […] The supernatant was transferred to a black 96-well plate with a clear bottom, and the TAMRA-peptide was quantified using a PHERAstar FSX plate reader (BMG LABTECH, Ortenberg, Germany). The excitation/emission wavelengths were set at 540/580 nm. The corresponding peptide concentration in the tissues was calculated using a standard curve (blank tissue mixed with TAMRA-peptide, concentration range of 0-1000 nM).

Data set [3] can be described thus: Toxicological experiment: serum UREA and CREA after 5 days of i.v. dosing. In kind it is in vivo, SD rats. As to conditions: male SD rats, 30 mg/kg i.v. once daily for 5 days, serum 2 h after dosing on day 5. How it is done:
The compounds of Examples 1-8 were accurately weighed into suitable EP tubes, and the vehicle (saline) was added to formulate a solution of a concentration of 15 mg/mL. The solution was filtered using a 0.2 μm filter for future use.
A total of 18 male SD rats of 6-7 weeks of age were used for test. After the animal quarantine and acclimatization period, the animals were randomly divided into 6 groups according to their body weights measured before grouping, vehicle control group (saline) as well as example compounds groups, 3 animals/group. Using the above prepared solution, the animal was administered intravenously via the tail vein at a dosage of 30 mg/kg and a dosing volume of 2 mL/kg. The dosing volume for each animal was calculated according to the body weight. Administration was performed once daily for 5 consecutive days. After 2 h of administration on day 5, the animals were deeply anesthetized by intraperitoneal injection of sodium pentobarbital. The thoracic cavity was opened, and blood was collected from the abdominal aorta into blood collection tubes containing inert separation gel and coagulant. The serum was collected by centrifugation (4000 rpm, 10 min) after about 1 h of resting. The concentrations of UREA and CREA in the serum were detected using a biochemical analyzer. The percentage change of each example compound relative to the vehicle control group was calculated using the formula: %=(Concentration of example compound−Concentration of vehicle control group)/Concentration of vehicle control group.

Data set [4] in a line: in vitro. The conditions noted are these: human, plasma.
Procedure: (§1) • Plasma: Human plasma is commercially available. • Reagents: DMSO (dimethyl sulfoxide), disodium hydrogen phosphate, sodium dihydrogen phosphate, methanol, formic acid, and propranolol (internal standard) are commercially available. • Instrument: AB SCIEX QTRAP 5500+.
(§2) 5 μL of stock solution (10 mM) was diluted with 495 μL of 0.05 M sodium phosphate buffer to 100 μM of dosing solution. The final concentration of tested drug for incubation was 10 μM.
(§3) A certain volume (e.g., 27 μL or 24 μL) of plasma was added into a 96-well plate. An appropriate volume of the internal standard working solution (e.g., 150 μL) was immediately added to precipitate. […] This was performed in duplicate.
(§4) Then, an appropriate amount of plasma (e.g., 27 μL or 24 μL) was added at the designed time points (e.g., 5 min, 15 min, 30 min, 60 min, and 120 min, etc.), and the parallel replicate wells were performed at each time point. […] The reaction was terminated by adding an appropriate amount of internal standard working solution (e.g., 150 μL) at the end of the time, and the mixture was mixed thoroughly.
(§5) The mixture was centrifuged at 4000 rpm for 15 min. A certain amount of the supernatant was taken, mixed with a certain amount of water, and then subjected to LC/MS/MS analysis. LC-MS detection conditions were as follows: • Chromatography column: YMC Triart C18, 50*3.0 mm, 2.1 μm. • Mobile phase: Gradient elution was performed using water (0.1% formic acid)-acetonitrile according to the table below.
(§6) The relative content of drug at each time point was calculated using the initial 0 point as 100%. The half-life of the drug was calculated by plotting “relative drug content” against “incubation time” using GraphPad Prism 5 software.
The nature of data set [5]: In vitro plasma stability experiment (compounds), without or with tPA. The conditions noted are these: human, With tPA T1/2, human plasma, 37° C., initial concentration 10 μM, with rt-PA […].
Procedure: as §1, §2, §3, §4, §5, §6

Chain of PDZ1-2 of PSD95 (P78352 61-249 limits assumed): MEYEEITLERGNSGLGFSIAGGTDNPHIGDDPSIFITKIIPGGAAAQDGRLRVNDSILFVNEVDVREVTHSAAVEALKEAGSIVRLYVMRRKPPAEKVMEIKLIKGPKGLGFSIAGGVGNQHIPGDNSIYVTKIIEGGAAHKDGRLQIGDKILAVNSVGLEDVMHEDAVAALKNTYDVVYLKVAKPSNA

Broadly, the IC50 is the concentration that gives 50% inhibition. Higher therefore signals lower potency. As for `CC[C@H](C)[C@H](NC(=O)[C@H](CO)NC(=O)[C@H](CO)NC(=O)[C@H](CC(C)C)NC(=O)[C@@H](CCCCN)NC(=O)[C@H](CCCNC(=N)N)NC(=O)[C@@H](CCCNC(=N)N)NC(=O)[C@H](CCC(N)=O)NC(=O)[C@@H](CCCNC(=N)N)NC(=O)[C@H](CCCNC(=N)N)NC(=O)[C@H](CCCCN)NC(=O)[C@H](CCCCN)NC(=O)[C@@H](CCCNC(=N)N)NC(=O)CNC(=O)[C@@H](N)Cc1ccc(O)cc1)C(=O)N[C@@H](CCC(=O)O)C(=O)N[C@@H](CO)C(=O)N[C@@H](CC(=O)O)C(=O)N[C@H](C(=O)O)C(C)C` [Compound 1] (H-YG[dR]KKR[dR]Q[dR]R[dK]LSSIESDV-OH; N-terminus and C-terminus assumed), the IC50 in data set [1] amounted to 14.9 µM. Moreover, the “Mean tissue concentration, Brain” value in data set [2] amounted to 5.9220 nmol/g. In addition, in data set [3], the “CREA, percentage change compared to vehicle control group” value came to 216.9% and the “UREA, percentage change compared to vehicle control group” value is given as 206.9%.

Usually half-life stands for the time in which the quantity being followed falls by half. `CC[C@H](C)[C@H](NC(=O)[C@H](CO)NC(=O)[C@H](CO)NC(=O)[C@H](CC(C)C)NC(=O)[C@@H](CCCCN)NC(=O)[C@H](CCCNC(=N)N)NC(=O)[C@H](CCCNC(=N)N)NC(=O)[C@@H](CCCNC(=N)N)NC(=O)[C@H](CCC(=O)O)NC(=O)[C@@H](CCCNC(=N)N)NC(=O)[C@H](CCCNC(=N)N)NC(=O)[C@H](CCCCN)NC(=O)[C@H](CCCCN)NC(=O)[C@@H](CCCNC(=N)N)NC(=O)CNC(=O)[C@@H](N)Cc1ccc(O)cc1)C(=O)N[C@@H](CCC(=O)O)C(=O)N[C@@H](CO)C(=O)N[C@@H](CC(=O)O)C(=O)N[C@H](C(=O)O)C(C)C` [Compound 15] (H-YG[dR]KKR[dR]E[dR]RR[dK]LSSIESDV-OH): the half-life in data set [4] (With tPA T1/2) and in data set [4] (Without tPA T1/2) was more than 33.3 h throughout. This compound gave a half-maximal inhibitory concentration (IC50) in data set [1] of 11.3 µM. Also, in data set [2], the “Mean tissue concentration, Brain” value was 4.4515 nmol/g. Also, in data set [3], the “CREA, percentage change compared to vehicle control group” value was found to be 90.8%. Moreover, the “UREA, percentage change compared to vehicle control group” value in data set [3] is recorded as 88.6%.

For “YGRKKRRQRRRKLSSIESDV [NA-1, reference compound]”, in data set [2], the “Mean tissue concentration, Brain” value is 2.9115 nmol/g. The same compound registered a half-life at 10 μM in data set [5] of 3.61 min.

Values taken from patent US20260199492A1, “PSD-95 DOMAIN INHIBITOR, AND PREPARATION METHOD THEREFOR AND USE THEREOF” (SHENZHEN SALUBRIS PHARMACEUTICALS CO., LTD, priority 2023, published 2026).
